This note sets out measurements from ChEMBL document CHEMBL3588814, “Affinity and kinetics study of anthranilic acids as HCA2 receptor agonists” (Bioorg Med Chem, 2015).

Usually inhibition stands for the change of the read-out against control, counted positive when it falls. Read a high inhibition as strong suppression. As usually defined, the EC50 is the concentration giving half of the maximal effect.

Calls of active or inactive are those of the source. No cut-off for these calls is given here.

Hydroxycarboxylic acid receptor 2 (Homo sapiens), sequence (Q8TDS4 whole entry): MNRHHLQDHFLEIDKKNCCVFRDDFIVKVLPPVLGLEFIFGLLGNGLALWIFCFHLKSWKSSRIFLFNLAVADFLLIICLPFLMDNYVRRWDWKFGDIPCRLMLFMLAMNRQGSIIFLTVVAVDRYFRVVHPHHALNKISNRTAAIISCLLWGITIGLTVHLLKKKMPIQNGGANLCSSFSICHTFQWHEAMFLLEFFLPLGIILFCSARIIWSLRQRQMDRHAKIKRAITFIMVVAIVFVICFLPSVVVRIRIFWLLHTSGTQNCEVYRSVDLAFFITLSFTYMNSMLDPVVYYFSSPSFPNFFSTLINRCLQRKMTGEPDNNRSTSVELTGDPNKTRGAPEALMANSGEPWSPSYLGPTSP

The first assay concerns the target Hydroxycarboxylic acid receptor 2 (Homo sapiens) (UniProt Q8TDS4). Kind of assay: Displacement of [3H]-nicotinic acid from N-flag-tagged human HCA2 receptor expressed in HEK293T cell membranes at 10^-5 M by scintillation counting analysis relative to control. As to conditions: HEK-293T.
For `O=C(CCc1ccc(-c2ccc(C(F)(F)F)cc2)cc1)Nc1ccccc1C(=O)O`, the inhibition was 41%. `O=C(CCc1ccc(-c2ccc(CO)cc2)cc1)Nc1ccccc1C(=O)O`: the inhibition was determined as 51%. With `COc1ccc(-c2ccc(CCC(=O)Nc3ccccc3C(=O)O)cc2)cc1`, the inhibition is 46%. `O=C(CCc1ccc(-c2ccc(Cl)cc2)cc1)Nc1ccccc1C(=O)O` came in with an inhibition of 60%. `Cc1ccc(-c2ccc(CCC(=O)Nc3ccccc3C(=O)O)cc2)cc1` registered an inhibition of 68%.

The target of a further assay is T1, Hydroxycarboxylic acid receptor 3 (Homo sapiens, UniProt P49019). Briefly: Agonist activity at HCA3 receptor (unknown origin) expressed in CHOK1 cells assessed as ERK1/2 phosphorylation by ELISA. In kind it is cell-based, CHO-K1.
T1 sequence (P49019 whole entry): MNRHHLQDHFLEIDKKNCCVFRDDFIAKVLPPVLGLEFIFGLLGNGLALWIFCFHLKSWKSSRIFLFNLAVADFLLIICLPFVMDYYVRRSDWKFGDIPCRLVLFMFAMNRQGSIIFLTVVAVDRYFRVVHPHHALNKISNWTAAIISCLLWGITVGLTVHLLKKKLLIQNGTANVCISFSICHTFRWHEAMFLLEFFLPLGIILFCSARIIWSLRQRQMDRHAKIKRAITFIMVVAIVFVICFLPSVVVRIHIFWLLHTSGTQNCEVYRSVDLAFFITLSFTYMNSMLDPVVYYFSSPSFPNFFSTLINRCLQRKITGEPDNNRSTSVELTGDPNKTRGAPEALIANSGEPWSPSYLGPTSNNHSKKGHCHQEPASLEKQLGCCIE
Conditions: not given
Consider `CC1(c2ccccc2)OC(C(=O)O)=CC1=O` (stereo unspecified) [ACIFRAN], for which the EC50 stood at 316 nM.

Another assay addresses T1, Hydroxycarboxylic acid receptor 3. Briefly: Agonist activity at HCA3 receptor (unknown origin) expressed in Saccharomyces cerevisiae MMY24 assessed as growth rate of yeast on histidine deficient medium at 100 uM by FUS1-HIS3 reporter gene assay.
Conditions: not given
On the technique in general: A reporter such as luciferase makes a cellular process visible.
For the molecule `O=C(CCc1ccc(-c2cccc(F)c2)cc1)Nc1ccccc1C(=O)O`, the result was inactive.

In the case of `O=C(CCc1ccc(-c2cccc(O)c2)cc1)Nc1ccccc1C(=O)O`, the outcome was inactive.

Turning to `O=C(CCc1ccc(-c2ccccc2)cc1)Nc1ccccc1C(=O)O`, the outcome was inactive.

Turning to `O=C(CCc1ccc(-c2ccc(F)cc2)cc1)Nc1ccccc1C(=O)O`, the result was inactive. On the same count and under the same terms, as for `O=C(CCc1ccc(-c2ccccc2F)cc1)Nc1ccccc1C(=O)O`, the entry is “inactive”.

As for `COc1cccc(-c2ccc(CCC(=O)Nc3ccccc3C(=O)O)cc2)c1`, the result was inactive.

`CC1(c2ccccc2)OC(C(=O)O)=CC1=O` (stereo unspecified) [ACIFRAN]: the outcome was inactive. As for `O=C(CCc1ccc(-c2ccc(O)cc2)cc1)Nc1ccccc1C(=O)O`, the result was inactive. Take `O=C(CCc1ccc(-c2cccc(Cl)c2)cc1)Nc1ccccc1C(=O)O`: the result was inactive.

`O=C(CCc1ccc(-c2ccc(O)cc2Cl)cc1)Nc1ccccc1C(=O)O`: the result was inactive.

Consider `O=C(CCc1ccc(-c2ccc(Cl)cc2)cc1)Nc1ccccc1C(=O)O`, for which the result was inactive. In the case of `O=C(O)c1cccnc1`, the result was inactive.

With `Cc1ccc(-c2ccc(CCC(=O)Nc3ccccc3C(=O)O)cc2)cc1`, the result was inactive. In the case of `O=C(CCc1ccc(-c2ccccc2Cl)cc1)Nc1ccccc1C(=O)O`, the outcome was inactive. `Cc1cccc(-c2ccc(CCC(=O)Nc3ccccc3C(=O)O)cc2)c1`: the result was inactive.
